US20120196899A1, “METHODS AND PRODUCTS FOR TREATING INFLAMMATION” (Rock Creek Pharmaceuticals, Inc., priority 2010, published 2012)
“And” between values parts separate entries of the source, which are not always exact repeats. Identical values can stand only once. Like-named read-outs stand apart in the source and are kept apart here.

Legend:
[1] = Concentration in brain extracts after single i.v. bolus; type: in vivo, Sprague-Dawley rats; conditions: for concentration at 0.5 h / concentration at 24 h / concentration at 6 h: Sprague-Dawley, rat, brain, intravenous
Method: Six rats (3 males and 3 females) were dosed per dose group. […] Plasma and brain homogenates were stored at −80° C. until analysis.
An additional 48 rats (24 males and 24 females) received a single intravenous dose via the tail vein at the same doses as mentioned above. At 30 and 360 minutes post administration, 6 rats (3 males and 3 females) per dose group, per time point were euthanized, bled via cardiac puncture, and perfused, and brains were collected. The brains were homogenized. Blood was spun, and plasma was collected. Plasma and brain homogenate were stored at −80° C.
The animals were weighed prior to dosing and received a single i.v. dose of either test compound at a volume of 5 mL/kg. Blood was collected via the venus plexus (retro-orbital) into tubes containing (K2) EDTA. No more than 0.5 mL was collected per time point. […] The brain was removed, weighed, homogenized in sterile 0.9% saline at a volume equal to its weight, and stored at −80° C.
Sample preparation. […] The amount of the test agent in the supernatant was determined by liquid chromatography tandem mass spectrometry (LC/MS/MS).
Analysis. Samples were analyzed by LC/MS/MS using an Agilent 6410 mass spectrometer coupled with an Agilent 1200 high pressure liquid chromatography (HPLC) and a CTC PAL chilled autosampler, all controlled by MassHunter software (Agilent). After separation on a hydrophilic interaction liquid chromatography (HILIC) HPLC column (Sepax) using an acetonitrile-ammonium acetate/acetic acid gradient system, peaks were analyzed by mass spectrometry (MS) using ESI ionization in multiple reaction monitoring (MRM) mode. MassHunter software was used to calculate the concentration of the test compounds in samples from the peak area using the appropriate calibration curves.
Calibration samples. Calibration curves were determined for both rat plasma and brain homogenate. Calibration samples were prepared by diluting a 50× stock solution of the test compound in PBS with blank matrix to the appropriate concentration and these samples were prepared as described above in the sample preparation.

[2] = system: Aβ production; experiment: Aβ production in 7W CHO cells; type: cell-based
[3] = system: Experimental Autoimmune Thyroiditis; experiment: Experimental Autoimmune Thyroiditis (Example 16A): thyroid histopathology; type: in vivo, mice; conditions: 0.05 mg/ml in drinking water, day 21, p=0.05
Method: Thyroiditis was induced by injection of thyroglobulin emulsified in complete Freund's adjuvant (CFA). On days 0 and 7, female mice received subcutaneous injection of 100 μg thyroglobulin (2 injections of 50 μg each). Control mice drank water. […] Mice were sacrificed on day 21.
Thyroid histopathology. Thyroid glands were removed. One lobe was fixed in formalin for histopathology. One lobe was frozen for immunohistochemistry. The extent of lymphocytic infiltration and destruction of the thyroid gland was assessed digitally. Initially, the entire thyroid lobe was examined. […] The final score was expressed as the percent of the thyroid area infiltrated by lymphocytes and damaged. The results are shown graphically in FIG. 42. […] Photomicrographs of hematoxylin- and eosin-stained thyroids from control and anatabine-treated mice are shown in FIG. 43A (control) and FIG. 43B (anatabine-treated).

SMILES: C1=CCC(c2cccnc2)NC1 (racemic) [Anatabine, 1,2,3,6-tetrahydro-[2,3′]bipyridinyl]
- Concentration of anatabine in rat brain extract ([1]; Anatabine 0.1 mg/kg, Rat Brain, 0.5 hr, individual rats): <LLQ and 21 ng/mL and 34 ng/mL and 25 ng/mL and 30 ng/mL
- Concentration of anatabine in rat brain extract ([1]; Anatabine 0.1 mg/kg, Rat Brain, 6 hr, individual rats): 3 ng/mL and <LLQ (2×) and 5 ng/mL and 4 ng/mL and 2 ng/mL
- Concentration of anatabine in rat brain extract ([1]; Anatabine 0.1 mg/kg, Rat Brain, 24 hr, individual rats): <LLQ (4×) and 2 ng/mL
- Concentration of anatabine in rat brain extract ([1]; Anatabine 0.75 mg/kg, Rat Brain, 0.5 hr, individual rats): 317 ng/mL and 393 ng/mL
- Concentration of anatabine in rat brain extract ([1]; Anatabine 0.75 mg/kg, Rat Brain, 6 hr, individual rats): 28 ng/mL and 19 ng/mL and 17 ng/mL and 27 ng/mL and 20 ng/mL
- Concentration of anatabine in rat brain extract ([1]; Anatabine 0.75 mg/kg, Rat Brain, 24 hr, individual rats): <LLQ
- Avg. Conc. rat brain ([1]; Anatabine 0.75 mg/kg, female, 24 hr): <LLQ
- Avg. Conc. rat brain, combined male and female ([1]; Anatabine 0.75 mg/kg, male and female, 24 hr): <LLQ
- Avg. Conc. rat brain ([1]; Anatabine 0.75 mg/kg, male, 24 hr): <LLQ
- Concentration of anatabine in rat brain extract ([1]; Anatabine 1.0 mg/kg, Rat Brain, 0.5 hr, individual rats): 338 ng/mL and 362 ng/mL and 393 ng/mL
- Concentration of anatabine in rat brain extract ([1]; Anatabine 1.0 mg/kg, Rat Brain, 6 hr, individual rats): 3 ng/mL and 4 ng/mL (2×) and 8 ng/mL (2×) and <LLQ
- Concentration of anatabine in rat brain extract ([1]; Anatabine 1.0 mg/kg, Rat Brain, 24 hr, individual rats): 2 ng/mL and <LLQ (4×)
- Avg. Conc. rat brain ([1]; Anatabine 1.0 mg/kg, female, 24 hr): <LLQ
- concentration at 0.5 h ([1]; 0.1 mg/kg, Concentration of anatabine in rat brain extract, Anatabine 0.1 mg/kg, Rat Brain, 0.5 hr, individual rats): 19 ng/mL
- concentration at 24 h ([1]; 0.1 mg/kg, Concentration of anatabine in rat brain extract, Anatabine 0.1 mg/kg, Rat Brain, 24 hr, individual rats): 3 ng/mL
- concentration at 24 h ([1]; 1 mg/kg, Concentration of anatabine in rat brain extract, Anatabine 1.0 mg/kg, Rat Brain, 24 hr, individual rats): 3 ng/mL
- Mean concentration in rat brain extracts ([1]; anatabine 0.75 mg/kg i.v., 24 hr, Female): <LLQ
- Mean concentration in rat brain extracts ([1]; anatabine 0.75 mg/kg i.v., 24 hr, Male): <LLQ
- Mean concentration in rat brain extracts ([1]; anatabine 1.0 mg/kg i.v., 24 hr, Female): <LLQ
- concentration at 0.5 h ([1]; both sexes, 0.1 mg/kg, Anatabine 0.1 mg/kg, male and female, 0.5 hr, read-out: Avg. Conc. rat brain, combined male and female): 25.8 ng/g
- concentration at 6 h ([1]; both sexes, 0.1 mg/kg, Anatabine 0.1 mg/kg, male and female, 6 hr, read-out: Avg. Conc. rat brain, combined male and female): 3.5 ng/g
- concentration at 24 h ([1]; both sexes, 0.1 mg/kg, Anatabine 0.1 mg/kg, male and female, 24 hr, read-out: Avg. Conc. rat brain, combined male and female): 2.5 ng/g
- concentration at 0.5 h ([1]; both sexes, 0.75 mg/kg, Anatabine 0.75 mg/kg, male and female, 0.5 hr, read-out: Avg. Conc. rat brain, combined male and female): 295 ng/g
- concentration at 6 h ([1]; both sexes, 0.75 mg/kg, Anatabine 0.75 mg/kg, male and female, 6 hr, read-out: Avg. Conc. rat brain, combined male and female): 21.2 ng/g
- concentration at 6 h ([1]; both sexes, 0.75 mg/kg, Concentration of anatabine in rat brain extract, Anatabine 0.75 mg/kg, Rat Brain, 6 hr, individual rats): 16 ng/mL
- concentration at 0.5 h ([1]; both sexes, 1 mg/kg, Anatabine 1.0 mg/kg, male and female, 0.5 hr, read-out: Avg. Conc. rat brain, combined male and female): 334 ng/g
- concentration at 6 h ([1]; both sexes, 1 mg/kg, Anatabine 1.0 mg/kg, male and female, 6 hr, read-out: Avg. Conc. rat brain, combined male and female): 5.4 ng/g
- concentration at 24 h ([1]; both sexes, 1 mg/kg, Anatabine 1.0 mg/kg, male and female, 24 hr, read-out: Avg. Conc. rat brain, combined male and female): 2.5 ng/g
- concentration at 0.5 h ([1]; both sexes, 1 mg/kg, Concentration of anatabine in rat brain extract, Anatabine 1.0 mg/kg, Rat Brain, 0.5 hr, individual rats): 349 ng/mL
- concentration at 0.5 h ([1]; female, 0.1 mg/kg, Anatabine 0.1 mg/kg, female, 0.5 hr, read-out: Avg. Conc. rat brain): 29.7 ng/g
- concentration at 6 h ([1]; female, 0.1 mg/kg, Anatabine 0.1 mg/kg, female, 6 hr, read-out: Avg. Conc. rat brain): 3.7 ng/g
- concentration at 24 h ([1]; female, 0.1 mg/kg, Anatabine 0.1 mg/kg, female, 24 hr, read-out: Avg. Conc. rat brain): 2 ng/g
- concentration at 0.5 h ([1]; female, 0.1 mg/kg, anatabine 0.1 mg/kg i.v., 0.5 hr, Female, read-out: Mean concentration in rat brain extracts): 29.7 ± 4.5 ng/g
- concentration at 6 h ([1]; female, 0.1 mg/kg, anatabine 0.1 mg/kg i.v., 6 hr, Female, read-out: Mean concentration in rat brain extracts): 3.7 ± 1.5 ng/g
- concentration at 24 h ([1]; female, 0.1 mg/kg, anatabine 0.1 mg/kg i.v., 24 hr, Female, read-out: Mean concentration in rat brain extracts): 2 ng/g
- concentration at 0.5 h ([1]; female, 0.75 mg/kg, Anatabine 0.75 mg/kg, female, 0.5 hr, read-out: Avg. Conc. rat brain): 315 ng/g
- concentration at 6 h ([1]; female, 0.75 mg/kg, Anatabine 0.75 mg/kg, female, 6 hr, read-out: Avg. Conc. rat brain): 21 ng/g
- concentration at 0.5 h ([1]; female, 0.75 mg/kg, anatabine 0.75 mg/kg i.v., 0.5 hr, Female, read-out: Mean concentration in rat brain extracts): 315 ± 67.9 ng/g
- concentration at 6 h ([1]; female, 0.75 mg/kg, anatabine 0.75 mg/kg i.v., 6 hr, Female, read-out: Mean concentration in rat brain extracts): 21 ± 6.2 ng/g
- concentration at 0.5 h ([1]; female, 1 mg/kg, Anatabine 1.0 mg/kg, female, 0.5 hr, read-out: Avg. Conc. rat brain): 346 ng/g
- concentration at 6 h ([1]; female, 1 mg/kg, Anatabine 1.0 mg/kg, female, 6 hr, read-out: Avg. Conc. rat brain): 6 ng/g
- concentration at 0.5 h ([1]; female, 1 mg/kg, anatabine 1.0 mg/kg i.v., 0.5 hr, Female, read-out: Mean concentration in rat brain extracts): 346 ± 56.7 ng/g
- concentration at 6 h ([1]; female, 1 mg/kg, anatabine 1.0 mg/kg i.v., 6 hr, Female, read-out: Mean concentration in rat brain extracts): 6 ± 2.8 ng/g
- concentration at 0.5 h ([1]; male, 0.1 mg/kg, Anatabine 0.1 mg/kg, male, 0.5 hr, read-out: Avg. Conc. rat brain): 20 ng/g
- concentration at 6 h ([1]; male, 0.1 mg/kg, Anatabine 0.1 mg/kg, male, 6 hr, read-out: Avg. Conc. rat brain): 3 ng/g
- concentration at 24 h ([1]; male, 0.1 mg/kg, Anatabine 0.1 mg/kg, male, 24 hr, read-out: Avg. Conc. rat brain): 3 ng/g
- concentration at 0.5 h ([1]; male, 0.1 mg/kg, anatabine 0.1 mg/kg i.v., 0.5 hr, Male, read-out: Mean concentration in rat brain extracts): 20 ± 1.4 ng/g
- concentration at 6 h ([1]; male, 0.1 mg/kg, anatabine 0.1 mg/kg i.v., 6 hr, Male, read-out: Mean concentration in rat brain extracts): 3 ng/g
- concentration at 24 h ([1]; male, 0.1 mg/kg, anatabine 0.1 mg/kg i.v., 24 hr, Male, read-out: Mean concentration in rat brain extracts): 3 ng/g
- concentration at 0.5 h ([1]; male, 0.75 mg/kg, Anatabine 0.75 mg/kg, male, 0.5 hr, read-out: Avg. Conc. rat brain): 276 ng/g
- concentration at 6 h ([1]; male, 0.75 mg/kg, Anatabine 0.75 mg/kg, male, 6 hr, read-out: Avg. Conc. rat brain): 21.3 ng/g
- concentration at 0.5 h ([1]; male, 0.75 mg/kg, anatabine 0.75 mg/kg i.v., 0.5 hr, Male, read-out: Mean concentration in rat brain extracts): 276 ± 37 ng/g
- concentration at 0.5 h ([1]; male, 1 mg/kg, Anatabine 1.0 mg/kg, male, 0.5 hr, read-out: Avg. Conc. rat brain): 323 ng/g
- concentration at 6 h ([1]; male, 1 mg/kg, Anatabine 1.0 mg/kg, male, 6 hr, read-out: Avg. Conc. rat brain): 5 ng/g
- concentration at 24 h ([1]; male, 1 mg/kg, Anatabine 1.0 mg/kg, male, 24 hr, read-out: Avg. Conc. rat brain): 2.5 ng/g
- concentration at 0.5 h ([1]; male, 1 mg/kg, anatabine 1.0 mg/kg i.v., 0.5 hr, Male, read-out: Mean concentration in rat brain extracts): 323 ± 35.9 ng/g
- concentration at 6 h ([1]; male, 1 mg/kg, anatabine 1.0 mg/kg i.v., 6 hr, Male, read-out: Mean concentration in rat brain extracts): 5 ± 2.6 ng/g
- concentration at 24 h ([1]; male, 1 mg/kg, anatabine 1.0 mg/kg i.v., 24 hr, Male, read-out: Mean concentration in rat brain extracts): 2.5 ± 0.7 ng/g
- appearance in brain tissue following i.v. administration ([1]; single i.v., rats): rapidly appear in brain tissue
- Aβ production (Aβ1-42, Aβ1-40) [2]: concentration-dependent reduction of Aβ production
- thyroid pathology (percent of thyroid area infiltrated and damaged) [3]: developed less severe thyroiditis than control mice
